Source: PubChem BioAssay (NCI)
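Grown in 96-well plates, cells were treated for 48 hours with each compound at five concentrations. Insufficient inhibition: endpoint recorded as highest concentration tested. GI50 marks 50% less growth. At the TGI there is no net growth.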

What was measured:
Test in all cases: inhibition of tumour cell growth, NCI panel, 48 h
A498 renal = test system: A498 renal
COLO 205 colon = test system: COLO 205 colon
HL-60(TB) leukemia = test system: HL-60(TB) leukemia
HOP-92 NSCLC = test system: HOP-92 NSCLC
K-562 leukemia = test system: K-562 leukemia
OVCAR-8 ovarian = test system: OVCAR-8 ovarian
SNB-75 CNS = test system: SNB-75 CNS
UACC-62 melanoma = test system: UACC-62 melanoma
HT29 colon = test system: HT29 colon
SN12C renal = test system: SN12C renal

Row | SMILES | TGI (A498 renal) [µM] | TGI (COLO 205 colon) [µM] | TGI (HL-60(TB) leukemia) [µM] | TGI (HOP-92 NSCLC) [µM] | TGI (K-562 leukemia) [µM] | TGI (OVCAR-8 ovarian) [µM] | TGI (SNB-75 CNS) [µM] | TGI (UACC-62 melanoma) [µM] | TGI (HT29 colon) [µM] | TGI (SN12C renal) [µM] | GI50 (A498 renal) [µM] | GI50 (COLO 205 colon) [µM] | GI50 (HL-60(TB) leukemia) [µM] | GI50 (HOP-92 NSCLC) [µM] | GI50 (HT29 colon) [µM] | GI50 (K-562 leukemia) [µM] | GI50 (OVCAR-8 ovarian) [µM] | GI50 (SN12C renal) [µM] | GI50 (SNB-75 CNS) [µM] | GI50 (UACC-62 melanoma) [µM]
1 | N=c1c2c(=S)n(-c3ccccc3)c(=S)n(-c3ccccc3)c2nc(SCCCN2CCN(c3cccc(Cl)c3)CC2)n1-c1ccccc1 | > 100 | > 100 | > 100 | > 100 | > 100 | > 100 | > 100 | > 100 | – | – | – | – | – | – | – | – | – | – | – | –
2 | COC(=O)c1cccc(N[C@@H]2c3cc4c(cc3C(c3cc(OC)c(O)c(OC)c3)[C@H]3C(=O)OCC32)OCO4)c1 (some centres undefined) | 3.46 | 5.5 | 1.1 | 7.14 | 20.6 | > 37 | > 21 | 8.28 | 16 | – | – | – | – | – | – | – | – | – | – | –
3 | C=C1C(=O)OC2/C=C(/C)C3CC(O)C(C)(CC(OC(=O)/C(C)=C/C)C12)O3 (centres undefined) | 23.2 | 3.08 | 18.3 | 8.68 | > 28.8 | 3.99 | 28.2 | 5.22 | 13.1 | 11.3 | – | – | – | – | – | – | – | – | – | –
4 | O=C(O)CS | – | > 100 | > 100 | > 100 | > 100 | – | > 100 | > 100 | > 100 | > 100 | – | – | – | – | – | – | – | – | – | –
5 | Nc1nc(Cl)cc(OCC2(CO)CC(OCc3ccccc3)C2)n1 (centres undefined) | – | – | – | – | – | – | – | – | – | – | 58.3 | 72.5 | 40 | 49.9 | 33.9 | 36.5 | 66.6 | 76.5 | 27.9 | 77.1
6 | COc1cc(/C=C/c2cc(/C=C/c3ccc(O)c(OC)c3)nc(N)n2)ccc1O | 3.26 | 3.24 | 6.17 | 5.19 | 8.31 | 7.24 | 3.34 | – | 0.948 | > 100 | 1.51 | 1.8 | 2.18 | 1.26 | 0.314 | 2.3 | 2.19 | 2.74 | 1.26 | –
7 | CC(=O)Oc1ccc2c(c1)oc1c3ccc(OC(C)=O)cc3n(C)c(=O)c21 | – | > 100 | – | > 100 | > 100 | 79.3 | 4.16 | > 100 | > 100 | 66 | – | – | – | – | – | – | – | – | – | –
8 | C=C1C(=O)C[C@@]23CCC[C@@]12CC(OCOC)C3 (some centres undefined) | 18.4 | 14.6 | 4.76 | 7.43 | > 51.5 | 9.96 | 6.41 | 7.62 | 4.41 | 4.53 | – | – | – | – | – | – | – | – | – | –
9 | S=P1(N2CCCCC2)Oc2ccc3ccccc3c2-c2c(ccc3ccccc23)O1 | > 100 | > 100 | > 100 | > 100 | > 100 | > 100 | > 92.1 | > 100 | > 100 | > 100 | – | – | – | – | – | – | – | – | – | –
10 | Cc1cc(C)c2c(c1)CC1(Cc3c(C)ccc(C)c3C1=O)C2=O (centres undefined) | > 100 | > 100 | > 100 | > 100 | > 100 | > 100 | > 100 | > 100 | – | > 100 | – | – | – | – | – | – | – | – | – | –
11 | N=C(N)c1ccc(-c2ccc(-c3ccccc3)s2)cc1 | – | – | – | 3.34 | – | – | – | 3.42 | – | 3.41 | – | – | – | 1.55 | – | – | – | 1.72 | – | 1.75
12 | O=[N+]([O-])c1ccccc1NC1c2ccccc2Oc2ccccc21 | > 100 | > 100 | 7.09 | > 100 | > 100 | > 100 | 38.6 | > 100 | > 100 | > 100 | 5.82 | 3.59 | 2.8 | 4.22 | 3.83 | 3.69 | 6.73 | 6.17 | 2.94 | 2.94
13 | O=C1C=CC2=[N+]([O-])C(c3ccccc3)(c3ccccc3)C(=Nc3ccccc3)C2=C1 | – | – | – | 3.48 | 4.34 | 3.39 | 8.74 | 4.51 | 5.63 | 3.96 | – | – | – | – | – | – | – | – | – | –
14 | CCCCCCCC/C=C\CCCCCCCC(=O)O | > 500 | > 500 | 290 | > 5 | 219 | 194 | 29.6 | 351 | > 500 | 199 | – | – | – | – | – | – | – | – | – | –
15 | CN(C)Cc1cc(C(C)(C)C)ccc1-c1ccc(C(C)(C)C)cc1CN(C)C | > 100 | > 100 | > 100 | > 100 | > 100 | > 100 | > 100 | > 100 | > 100 | > 100 | – | – | – | – | – | – | – | – | – | –
16 | CCN(CC)CCCNc1ncc(C)c2[nH]c3ccncc3c12 | 40.4 | 22.6 | > 31.6 | 26.3 | > 100 | 96.8 | 27.7 | 28.2 | 26.2 | 30.5 | – | – | – | – | – | – | – | – | – | –
17 | CN1CCCCC(C#N)(c2ccccc2)CC1 (centres undefined) | > 100 | > 100 | > 100 | > 100 | > 100 | > 100 | > 100 | – | > 100 | – | – | – | – | – | – | – | – | – | – | –
18 | COC(C(=O)C(O)C(C)O)C1CC2C=C3C=C(OC4CC(OC5CC(O)C(OC)C(C)O5)C(OC(C)=O)C(C)O4)C(C)C(=O)C3=C(O)C2=C(O)C1OC1CC(OC2CC(OC3CC(C)(O)C(OC(=O)C(C)C)C(C)O3)C(O)C(C)O2)C(O)C(C)O1 (centres undefined) | < 0.01 | < 0.01 | < 0.01 | – | < 0.01 | < 0.01 | < 0.01 | < 0.01 | – | < 0.01 | – | – | – | – | – | – | – | – | – | –
